# Assay results from patent US9718825B2, “N-(4-(azaindazol-6-yl)-phenyl)-sulfonamides and their use as pharmaceuticals” (priority 2013, dated 2017).
# pIC50: −log10 of the molar value.
# Assays:
# [1] = biological target: recombinant human SGK-1 enzyme (Homo sapiens, UniProt O00141); assay: Enzymatic activity assay: SGK-1 substrate peptide phosphorylation (Caliper lab-chip mobility shift); assay type: biochemical; conditions: peptide substrate 1 μM, ATP 10 μM, 60 min at 37° C., read-out: IC50 values for inhibition of SGK-1 enzymatic activity
# recombinant human SGK-1 enzyme, sequence (O00141 whole entry, looked up): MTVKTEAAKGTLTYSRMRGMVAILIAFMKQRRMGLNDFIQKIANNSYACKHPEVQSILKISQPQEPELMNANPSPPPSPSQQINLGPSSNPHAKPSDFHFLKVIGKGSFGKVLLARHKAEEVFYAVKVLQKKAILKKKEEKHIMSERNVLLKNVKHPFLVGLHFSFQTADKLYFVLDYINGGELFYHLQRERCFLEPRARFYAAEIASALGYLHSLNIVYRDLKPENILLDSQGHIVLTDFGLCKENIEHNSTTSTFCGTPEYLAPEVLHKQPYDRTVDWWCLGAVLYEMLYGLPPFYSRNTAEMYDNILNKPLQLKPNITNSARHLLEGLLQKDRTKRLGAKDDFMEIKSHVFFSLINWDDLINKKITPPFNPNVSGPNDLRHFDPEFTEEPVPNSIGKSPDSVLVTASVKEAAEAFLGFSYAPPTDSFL
# Experimental: In one of the cellular assays, the SGK-1 dependent phosphorylation of glycogen synthase kinase 3beta (GSK3beta) in U2OS cells was measured, in another one, a functional electrophysiological assay, the SGK-1 dependent activation of epithelial Na^+ channel (ENaC) currents in A6 cell monolayers, and in another one chondrocyte hypertrophic differentiation in mouse chondrogenic ATDC5 cells.
# A) Enzymatic Activity Assay
# For the determination of the compound dose response, a 10 mM DMSO stock solution was diluted and tested in a ten-point, three-fold dilution series run in duplicate beginning at 30 μM final concentration. Data were analyzed using a four-parameter curve fit with a fixed minimum and maximum experimentally defined as the average positive and negative controls on each plate.
# [2] = test system: SGK-1 dependent phosphorylation of GSK3beta in U2OS cells; assay: SGK-1 dependent phosphorylation of GSK3beta in U2OS cells overexpressing recombinant SGK-1 and GSK3beta; assay type: cell-based, human; conditions: U2OS cells, 6 h incubation, ratio of phosphorylated GSK3beta to total GSK3beta; read-out: IC50 values for inhibition of SGK-1 dependent phosphorylation of GSK3beta in U2OS cells
# Experimental: B) Determination of the Effect on SGK-1 Dependent Phosphorylation of GSK3beta in U2OS Cells
# U2OS cells were cultured in 1:1 Dulbecco modified Eagle medium/Ham's F12 and 10% heat-inactivated fetal calf serum (FCS Gold) at 37° C., 7% CO2 and 95% relative humidity. […] Cell suspension mixed with BacMam viruses was seeded in 96 well pCLEAR plates (Greiner) at 3×10^4 cells per well in 250 μl medium. […] 1 μl of a solution of the test compound at 250×final concentration was added. Cells are incubated at 37° C., 7% CO2 and 95% relative humidity. […] After removing the fixation solution, cells were permeabilised by adding 200 μl PBT (0.2% Triton X-100 in PBS) per well for 5 min. After removing PBT, cells were blocked by adding 200 μl of blocking solution (1% bovine serum albumine in PBS) per well. Blocking solution was removed and 50 μl of primary antibody (rabbit anti-phospho-GSK-3beta (Ser9), and mouse anti-GSK-3beta) were added for 1 h. […] After washing the cells 3 times with PBS, 200 μl of PBS were added. Fluorescence signals were measured with the ImageXpress MICRO (Molecular Devices).
SMILES,pIC50 [1],pIC50 [2]
O=S(=O)(Nc1ccc(-c2nc(O[C@@H]3CCC[C@H]3O)c3cn[nH]c3n2)cc1)c1cc(Cl)ccc1Cl [Example 88],8.17,5.35
O=S(=O)(Nc1ccc(-c2nc(SCCCO)c3cn[nH]c3n2)cc1)c1cc(Cl)ccc1Cl [Example 89],> 8.82,7.00
COc1ccc(Cl)c(S(=O)(=O)Nc2ccc(-c3nc(OC4CCC(O)CC4)c4cn[nH]c4n3)cc2)c1 (centres unmarked) [Example 90],8.66,6.70
COc1ccc(Cl)c(S(=O)(=O)Nc2ccc(-c3nc(O[C@@H]4CCC(O)C4)c4cn[nH]c4n3)cc2)c1 (some centres unmarked) [Example 91],> 8.82,6.74
Cc1ccc(F)c(S(=O)(=O)Nc2ccc(-c3nc(OC4CCC(O)CC4)c4cn[nH]c4n3)cc2)c1 (centres unmarked) [Example 92],8.68,6.74
Cc1ccc(C#N)c(S(=O)(=O)Nc2ccc(-c3ncc4c(C)n[nH]c4n3)cc2)c1 [Example 93],5.62,5.48
Cc1ccc(F)c(S(=O)(=O)Nc2ccc(-c3ncc4c(C)n[nH]c4n3)cc2)c1 [Example 95],> 8.82,5.34
Cc1ccc(C#N)c(S(=O)(=O)Nc2ccc(-c3nc(C4CCC(O)C4)c4c(C)n[nH]c4n3)cc2)c1 (centres unmarked) [Example 97],8.70,5.80
Cc1ccc(C#N)c(S(=O)(=O)Nc2ccc(-c3nc(NC4CCC(O)CC4)c4c(C)n[nH]c4n3)cc2)c1 (centres unmarked) [Example 98],8.77,5.77
Cc1ccc(F)c(S(=O)(=O)Nc2ccc(-c3nc(OC4CCC(O)CC4)c4c(C)n[nH]c4n3)cc2)c1 (centres unmarked) [Example 101],8.68,6.37
COc1ccc(Cl)c(S(=O)(=O)Nc2ccc(-c3nc(OC4CCC(O)CC4)c4c(C)n[nH]c4n3)cc2)c1 (centres unmarked) [Example 102],8.77,6.42
Cc1n[nH]c2nc(-c3ccc(NS(=O)(=O)c4cc5c(cc4Cl)OCCO5)cc3)ncc12 [Example 103],8.64,5.04
Cc1ccc(F)c(S(=O)(=O)Nc2ccc(-c3nc(OCC4CNC(=O)C4)c4cn[nH]c4n3)cc2)c1 (centres unmarked) [Example 107],8.60,5.43
Cc1ccc(F)c(S(=O)(=O)Nc2ccc(-c3nc(N4CC(CO)C4)c4cn[nH]c4n3)cc2)c1 [Example 109],7.80,5.34
COc1ccc(Cl)c(S(=O)(=O)Nc2ccc(-c3nc(N4CC(CO)C4)c4cn[nH]c4n3)cc2)c1 [Example 110],7.85,5.29
Cc1ccc(F)c(S(=O)(=O)Nc2ccc(-c3nc(OCCCC(N)=O)c4cn[nH]c4n3)cc2)c1 [Example 112],8.48,5.41
COc1ccc(Cl)c(S(=O)(=O)Nc2ccc(-c3nc(OCCCC(N)=O)c4cn[nH]c4n3)cc2)c1 [Example 113],8.52,5.44
Cc1ccc(F)c(S(=O)(=O)Nc2ccc(-c3nc(OCCC(N)=O)c4cn[nH]c4n3)cc2)c1 [Example 116],> 8.82,5.32
COc1ccc(Cl)c(S(=O)(=O)Nc2ccc(-c3nc(OCCC(N)=O)c4cn[nH]c4n3)cc2)c1 [Example 117],8.64,5.17
Cc1ccc(F)c(S(=O)(=O)Nc2ccc(-c3nc(OC4C[C@@H](O)C[C@@H](O)C4)c4cn[nH]c4n3)cc2)c1 (some centres unmarked) [Example 119],> 8.82,4.96
Cc1ccc(F)c(S(=O)(=O)Nc2ccc(-c3nc(OCC4O[C@H](O)[C@H](O)[C@@H](O)[C@@H]4O)c4cn[nH]c4n3)cc2)c1 (some centres unmarked) [Example 123],8.00,4.52
Cc1ccc(C#N)c(S(=O)(=O)Nc2ccc(-c3nc(OCC4CNC(=O)C4)c4cn[nH]c4n3)cc2)c1 (centres unmarked) [Example 125],8.70,4.92
Cc1n[nH]c2nc(-c3ccc(NS(=O)(=O)c4cc(C#N)ccc4F)cc3)nc(OC3CCC(O)CC3)c12 (centres unmarked) [Example 128],8.57,5.44
COc1ccc(F)c(S(=O)(=O)Nc2ccc(-c3nc(OC4CCC(O)CC4)c4c(C)n[nH]c4n3)cc2)c1 (centres unmarked) [Example 129],> 8.82,6.77
Cc1n[nH]c2nc(-c3ccc(NS(=O)(=O)c4cc(F)ccc4C#N)cc3)nc(OC3CCC(O)CC3)c12 (centres unmarked) [Example 131],8.31,5.59
COc1ccc(F)c(S(=O)(=O)Nc2ccc(-c3nc(OC4CCC(O)CC4)c4cn[nH]c4n3)cc2)c1 (centres unmarked) [Example 133],> 8.82,6.59

SMILES,pIC50 [1],pIC50 [2]
COc1ccc(C#N)c(S(=O)(=O)Nc2ccc(-c3nc(OC4CCC(O)CC4)c4cn[nH]c4n3)cc2)c1 (centres unmarked) [Example 134],> 8.82,6.19
COc1nc(-c2ccc(NS(=O)(=O)c3cc(C)ccc3C#N)cc2)nc2[nH]ncc12 [Example 135],7.92,5.72
COc1nc(-c2ccc(NS(=O)(=O)c3cc(Cl)ccc3F)cc2)nc2[nH]ncc12 [Example 136],7.39,5.77
COc1nc(-c2ccc(NS(=O)(=O)c3cc(Cl)ccc3C#N)cc2)nc2[nH]ncc12 [Example 138],7.36,5.46
COc1nc(-c2ccc(NS(=O)(=O)c3cc(Cl)ccc3Cl)cc2)nc2[nH]ncc12 [Example 139],7.09,5.26
O=S(=O)(Nc1ccc(-c2nc(C3CC3)c3cn[nH]c3n2)cc1)c1cc(Cl)ccc1F [Example 141],8.19,6.82
COc1ccc(Cl)c(S(=O)(=O)Nc2ccc(-c3nc(OC)c4cn[nH]c4n3)cc2)c1 [Example 143],8.00,7.00
COc1ccc(F)c(S(=O)(=O)Nc2ccc(-c3nc(OC)c4cn[nH]c4n3)cc2)c1 [Example 144],8.46,7.26
Cc1ccc(C#N)c(S(=O)(=O)Nc2ccc(-c3nc(C4CC4)c4cn[nH]c4n3)cc2)c1 [Example 145],8.39,6.46
Cc1ccc(C#N)c(S(=O)(=O)Nc2ccc(-c3nc(CCCCl)c4cn[nH]c4n3)cc2)c1 [Example 146],7.33,4.96
COc1ccc(F)c(S(=O)(=O)Nc2ccc(-c3nc(C4CC4)c4cn[nH]c4n3)cc2)c1 [Example 147],8.82,7.23
Cc1nc(-c2ccc(NS(=O)(=O)c3ccc(F)cc3Cl)cc2)nc2[nH]nc(N)c12 [Example 164],7.40,6.22
Cc1nc(-c2ccc(NS(=O)(=O)c3cc(F)c(F)c(F)c3)cc2)nc2[nH]nc(N)c12 [Example 165],6.96,6.01
Cc1nc(-c2ccc(NS(=O)(=O)c3ccccc3F)cc2)nc2[nH]nc(N)c12 [Example 169],6.96,6.60
Cc1nc(-c2ccc(NS(=O)(=O)c3cc(F)c(F)cc3Cl)cc2)nc2[nH]nc(N)c12 [Example 170],7.27,6.29
Cc1nc(-c2ccc(NS(=O)(=O)c3cccc(Cl)c3F)cc2)nc2[nH]nc(N)c12 [Example 171],7.40,6.06
Cc1nc(-c2ccc(NS(=O)(=O)C3=CSCC=C3Br)cc2)nc2[nH]nc(N)c12 [Example 173],6.48,6.22
Cc1nc(-c2ccc(NS(=O)(=O)C3=C(Cl)SCC(Cl)=C3)cc2)nc2[nH]nc(N)c12 [Example 175],7.72,6.28
COc1nc(-c2ccc(NS(=O)(=O)c3cc(Cl)cc(F)c3F)cc2)nc2[nH]ncc12 [Example 178],6.46,6.10
Cc1ccc(C#N)c(S(=O)(=O)Nc2ccc(-c3nc(OC4CNC4)c4cn[nH]c4n3)cc2)c1 [Example 188],8.47,6.05
O=S(=O)(Nc1ccc(-c2nc(OC3CNC3)c3cn[nH]c3n2)cc1)c1cc(Cl)ccc1Cl [Example 190],8.33,6.92
N#Cc1ccc(Cl)cc1S(=O)(=O)Nc1ccc(-c2nc(OC3CNC3)c3cn[nH]c3n2)cc1 [Example 191],7.68,5.57
COc1ccc(F)c(S(=O)(=O)Nc2ccc(-c3nc(OC4CNC4)c4cn[nH]c4n3)cc2)c1 [Example 192],8.55,6.85
Cc1ccc(C#N)c(S(=O)(=O)Nc2ccc(-c3nc(OCC(F)(F)F)c4c(N)n[nH]c4n3)cc2)c1 [Example 193],8.70,6.80
COc1ccc(Cl)c(S(=O)(=O)Nc2ccc(-c3nc(OCC(F)(F)F)c4c(N)n[nH]c4n3)cc2)c1 [Example 194],8.64,7.00
Nc1n[nH]c2nc(-c3ccc(NS(=O)(=O)c4cc(Cl)ccc4Cl)cc3)nc(OCC(F)(F)F)c12 [Example 195],8.27,6.68
